Measured values reported in the supplement of paper PMC8967900.

Experiments:
Assay in all cases: selective drug sensitivity score (sDSS, relative to normal bone marrow) (sDSS (score)); higher = more potent and effective on the cell line relative to normal bone marrow cells
Conditions in all cases: 72 h
SEM cells = system: SEM cells
KASUMI-9 = system: KASUMI-9
LC4-1 = system: LC4-1
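Also: ALL cell lines in 384-well plates, five doses spanning 10,000-fold, each plate scaled between vehicle and 100 µmol/L benzalkonium chloride controls, sDSS an adapted area-under-curve metric.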

| SMILES | selective drug sensitivity score (SEM cells) | selective drug sensitivity score (KASUMI-9) | selective drug sensitivity score (LC4-1) |
| --- | --- | --- | --- |
| Cn1cc(-c2[nH]c3cc(NC(=O)[C@H](N)C4CCCCC4)cc4c3c2C=NNC4=O)cn1 (top concentration 10000 nM) | 7.28 | 7.88 | 7.58 |
| CN[C@@H](C)C(=O)N[C@H](C(=O)N1CCC[C@H]1c1nc(C(=O)c2ccc(F)cc2)cs1)C1CCCCC1 [NVP-LCL161] (top concentration 25000 nM) | -0.22 | -2.72 | -5.42 |
| Cc1ncc(Cl)cc1NCc1ccc(C(=O)N[C@@H](CC2CCCC2)C(=O)NC2CC2)s1 (top concentration 5000 nM) | -0.94 | -0.84 | -0.94 |
| O=C1CCc2c(Oc3ccc4c(c3)[C@@H]3[C@H](O4)[C@H]3c3nc4cc(C(F)(F)F)ccc4[nH]3)ccnc2N1 [Lifirafenib (BGB-283)] (top concentration 10000 nM) | 15.7 | 5.58 | 3.28 |
| O=C(/C=C\n1cnc(-c2cc(C(F)(F)F)cc(C(F)(F)F)c2)n1)NNc1cnccn1 [Selinexor] (top concentration 10000 nM) | 5.38 | 7.98 | 7.78 |
| O=C(Nc1c[nH]nc1-c1nc2ccc(CN3CCOCC3)cc2[nH]1)NC1CC1 [AT9283] (top concentration 1000 nM) | 14.7 | 10.7 | 12.4 |
| Cc1nc(Nc2n[nH]c3c2CN(C(=O)N[C@H](CN(C)C)c2ccccc2)C3(C)C)c2sccc2n1 (top concentration 10000 nM) | 2.28 | 11.6 | 3.98 |
| C[C@H](Nc1ncnc2nc[nH]c12)c1cc2cccc(Cl)c2c(=O)n1-c1ccccc1 [Duvelisib] (top concentration 500 nM) | -0.54 | 3.36 | -0.94 |
| CNC(=O)c1cccc(-c2ccc3c(N4CCOC[C@@H]4C)nc(N4CCOC[C@@H]4C)nc3n2)c1 [Vistusertib] (top concentration 10000 nM) | 4.82 | 11.8 | 5.12 |
| C[C@H]1O[C@@H](O[C@H]2[C@@H](O)C[C@H](O[C@H]3[C@@H](O)C[C@H](O[C@H]4CC[C@@]5(C)[C@H](CC[C@@H]6[C@@H]5C[C@@H](O)[C@]5(C)[C@@H](C7=CC(=O)OC7)CC[C@]65O)C4)O[C@@H]3C)O[C@@H]2C)C[C@H](O)[C@@H]1O [Digoxin] (top concentration 1000 nM) | 10 | 7.1 | 7.8 |
| O=C(Nc1ccc2[nH]nc(-c3ccncc3)c2c1)[C@@H]1CCN(CC(=O)N2CCN(c3ccc(-c4ncccn4)cc3)CC2)C1 (top concentration 10000 nM) | -2.64 | 0.36 | 4.26 |
| Nc1ccn([C@@H]2O[C@H](CO)[C@@H](O)C2(F)F)c(=O)n1 [Gemcitabine] (top concentration 1000 nM) | 24.9 | 16.3 | 16.7 |
| NC1(c2ccc(-c3nc4ccn5c(=O)[nH]nc5c4cc3-c3ccccc3)cc2)CCC1 [MK-2206] (top concentration 1000 nM) | 4.36 | 4.36 | 0.06 |
| CC(C)Nc1cc(-c2c[nH]c(C(=O)N[C@H](CO)c3cccc(Cl)c3)c2)c(Cl)cn1 [Ulixertinib] (top concentration 10000 nM) | 1.62 | 1.82 | 0.32 |
| COCCNCc1ccc(-c2cc3nccc(Oc4ccc(NC(=O)C5(C(=O)Nc6ccc(F)cc6)CC5)cc4F)c3s2)nc1 [Sitravatinib] (top concentration 2500 nM) | 26.2 | 3.58 | 1.28 |
| CC(C)(C)c1cc(NC(=O)Nc2ccc(Oc3ccnc4[nH]c(=O)cnc34)cc2F)n(-c2ccccc2)n1 (top concentration 25000 nM) | 11.4 | -1.18 | -1.48 |
| CN[C@@H]1C[C@H]2O[C@@](C)([C@@H]1OC)n1c3ccccc3c3c4c(c5c6ccccc6n2c5c31)C(=O)N[C@H]4O [UCN-01] (top concentration 10000 nM) | 7.74 | 9.34 | 1.54 |
| CC(C)Oc1ccc(-c2nn([C@@H](C)c3oc4ccc(F)cc4c(=O)c3-c3cccc(F)c3)c3ncnc(N)c23)cc1F [TGR-1202] (top concentration 2500 nM) | -2.56 | 1.44 | -1.76 |
| CO[C@H](C(=O)[C@@H](O)[C@@H](C)O)[C@@H]1Cc2cc3cc(O[C@H]4C[C@@H](O[C@H]5C[C@@H](O)[C@H](O)[C@@H](C)O5)[C@@H](O)[C@@H](C)O4)c(C)c(O)c3c(O)c2C(=O)[C@H]1O[C@H]1C[C@@H](O[C@H]2C[C@@H](O[C@H]3C[C@](C)(O)[C@H](O)[C@@H](C)O3)[C@H](O)[C@@H](C)O2)[C@H](O)[C@@H](C)O1 [Plicamycin] (top concentration 10000 nM) | -16.6 | -17.5 | -16.7 |
| COc1cc2c(cc1-c1c(C)noc1C)ncc1[nH]c(=O)n([C@H](C)c3ccccn3)c12 [I-BET151] (top concentration 10000 nM) | 10.5 | 11.2 | 7.26 |

| SMILES | selective drug sensitivity score (SEM cells) | selective drug sensitivity score (KASUMI-9) | selective drug sensitivity score (LC4-1) |
| --- | --- | --- | --- |
| COc1ccc(COc2cc3oc(=O)c4cc(C(C)O)ccc4c3cc2OC)cc1 (stereo not given) [Palomid-529] (top concentration 10000 nM) | 1.76 | 0.66 | 12.6 |
| CC(=O)c1c(C)c2cnc(Nc3ccc(N4CCNCC4)cn3)nc2n(C2CCCC2)c1=O [Palbociclib] (top concentration 10000 nM) | 4.98 | 8.78 | 4.38 |
| CCN(CC)CCNC(=O)c1c(C)[nH]c(/C=C2\C(=O)Nc3ccc(-c4csc(-c5ccccc5)n4)cc32)c1C [Amcasertib] (top concentration 10000 nM) | 3 | -0.2 | 0.9 |
| CNc1ncc2cc(-c3cc(NC(=O)NCCC(C)(C)C)c(F)cc3C)c(C)nc2n1 (top concentration 10000 nM) | 5.66 | 9.16 | 7.86 |
| CCN(CC)CCNC(=O)c1c(C)[nH]c(/C=C2\C(=O)Nc3ccc(F)cc32)c1C [Sunitinib] (top concentration 1000 nM) | 15.3 | 0.66 | -0.84 |
| CC(=O)c1cc2c(o1)C(=O)c1ccccc1C2=O [Napabucasin] (top concentration 20000 nM) | 0.52 | -1.28 | -0.38 |
| CCS(=O)(=O)N1CCN(c2ccc(Nc3ncc(C(N)=O)c(NC4CC4)n3)cc2)CC1 [Cerdulatinib] (top concentration 10000 nM) | 2.54 | -1.36 | -9.46 |
| COC(=O)N[C@@H](C)CNc1nccc(-c2cn(C(C)C)nc2-c2cc(Cl)cc(NS(C)(=O)=O)c2F)n1 [Encorafenib] (top concentration 1000 nM) | 0.1 | 1.4 | 2.9 |
| Cn1ncc(Cl)c1-c1cc(C(=O)N[C@H](CN)Cc2ccc(F)c(F)c2)oc1Cl [Uprosertib] (top concentration 10000 nM) | 4.5 | 0.7 | -1.2 |
| Nc1ncnc2c1c(-c1cccc(OCc3ccccc3)c1)cn2[C@H]1C[C@@H](CN2CCC2)C1 [NVP-AEW541] (top concentration 10000 nM) | 1.38 | -2.72 | -0.92 |
| CC1(C)CCC(c2ccc(Cl)cc2)=C(CN2CCN(c3ccc(C(=O)NS(=O)(=O)c4ccc(N[C@H](CCN5CCOCC5)CSc5ccccc5)c(S(=O)(=O)C(F)(F)F)c4)cc3)CC2)C1 [Navitoclax] (top concentration 10000 nM) | 14.2 | 19.8 | 22.2 |
| CC(=O)O[C@]1(C(C)=O)CC[C@H]2[C@@H]3C=C(C)C4=CC(=O)CC[C@]4(C)[C@H]3CC[C@@]21C [Megestrol_acetate] (top concentration 10000 nM) | 3.42 | 3.92 | -0.38 |
| Cn1cc(-c2ccc(F)c(C(F)(F)F)c2)nc1C1CCN(c2ncnc3[nH]ncc23)CC1 (top concentration 10000 nM) | -0.14 | 0.66 | 5.56 |
| FC(F)(F)c1ccc(CNc2ccc(Cc3c[nH]c4ncc(Cl)cc34)cn2)cn1 [Pexidartinib] (top concentration 10000 nM) | 12.6 | 1.18 | 1.98 |
| COc1cc(Nc2ncc3c(n2)-c2ccc(Cl)cc2C(c2c(F)cccc2OC)=NC3)ccc1C(=O)O [Alisertib] (top concentration 10000 nM) | 26.8 | 25 | 25.5 |
| Nc1ncnc2c1nc(N)n2[C@@H]1O[C@H](CO)[C@@H](O)[C@H]1O [8-amino-adenosine] (top concentration 50000 nM) | 5.08 | 7.08 | 7.78 |
| C[C@H]1C=C2C(=O)O[C@H]3CC[C@@H](C1)[C@@]23O [Galiellalactone] (top concentration 25000 nM) | 3.56 | 6.76 | 7.16 |
| C=CC(=O)N1CC/C(=C\c2ccc(F)c([N+](=O)[O-])c2)C(=O)/C(=C/c2ccc(F)c([N+](=O)[O-])c2)C1 [VLX1570] (top concentration 10000 nM) | 3.38 | 0.88 | 0.68 |
| CN(c1ncccc1CNc1nc(Nc2ccc3c(c2)CC(=O)N3)ncc1C(F)(F)F)S(C)(=O)=O (top concentration 10000 nM) | 7.22 | 0.12 | 3.82 |
| O=C(/C=C/c1cccc(S(=O)(=O)Nc2ccccc2)c1)NO [Belinostat] (top concentration 10000 nM) | 7.6 | 8.9 | 9.7 |
